US8293705B2, “HCV protease inhibitors and uses thereof” (Avila Therapeutics, Inc., priority 2007, dated 2012)
Where two headings read alike, the source gives them in different places.

Key:
[1] = system: HCV RNA replicon in cell line ET (luc-ubi-neo/ET), human Huh7 hepatoma; experiment: Replicon luciferase assay, Example 26; type: cell-based; details: Hepatitis C virus, Huh-7, assay of Example 26, 72 hr; for EC50: read-out: Inhibition, Replicon, EC50 value; for EC90: read-out: Inhibition, Replicon, EC90 value
Description: The compounds were assayed to evaluate the antiviral activity and cytotoxicity of compounds using replicon-derived luciferase activity. This assay used the cell line ET (luc-ubi-neo/ET), which is a human Huh7 hepatoma cell line that contains an HCV RNA replicon with a stable luciferase (Luc) reporter and cell culture-adaptive mutations. The ET cell line was grown in a 5% CO2 incubator at 37° C. in Dulbecco's modified essential media (DMEM) supplemented with 2 mM L-glutamine, nonessential amino acids, 100 U of penicillin/ml, 100 μg of streptomycin/mL, and 10% fetal bovine serum. G418 (Geneticin; Invitrogen) was added at a final concentration of 400 ug//mL.
All cell culture reagents were obtained from Invitrogen (Carlsbad). Cells were trypsinized (1% trypsin:EDTA) and plated out at 5×10^3 cells/well in white 96-well assay plates (Costar) dedicated to cell number (cytotoxicity) or antiviral activity assessments. Test compounds were added at six 3-fold concentrations each and the assay was run in DMEM, 5% FBS, 1% pen-strep, 1% glutamine, 1% non essential amino acid. Human interferon alpha-2b (PBL Biolabs, New Brunswick, N.J.) was included in each run as a positive control compound. Cells were processed 72 hr post test compound addition when the cells were still subconfluent. Antiviral activity was measured by analyzing replicon-derived luciferase activity using the Steady-Glo Luciferase Assay System (Promega, Madison, Wis.) according to manufacturer's instruction. The number of cells in each well was determined by Cell Titer Blue Assay (Promega). Compound profile was derived by calculating applicable EC50 (effective concentration inhibiting virus replication by 50%), EC90 (effective concentration inhibiting virus replication by 90%), IC50 (concentration decreasing cell viability by 50%) and SI50 (selective index: […]) values.

[2] = molecular target: T1, HCV NS3/4A 1b protease D168A (Hepatitis C virus genotype 1b, UniProt Q9WMX2, D1194A); experiment: HCV protease FRET assay (IC50_APP), Example 16; type: biochemical
T1 construct: 10× stocks of NS3/4A protease enzyme from Bioenza (Mountain View, Calif.); purchased Bioenza (Mountain View, Calif.)
Description: (§1) The following protocol was used to generate “apparent” IC50 (IC50 APP) values as depicted in Table 6, below. […] 5 μL of each enzyme were added to Corning (#3575) 384-well, black, microtiter plates (Corning, N.Y.) after spotting a 0.5 μL volume of 50% DMSO and serially diluted compounds prepared in 50% DMSO. Protease reactions were immediately started after enzyme addition with the addition of 45 μL of the FRET substrate and monitored for 60-90 minutes at λex485/λem520 in a Synergy^4 plate reader from BioTek (Winooski, Vt.). At the conclusion of each assay, progress curves from each well were examined for linear reaction kinetics and fit statistics (R^2, 95% confidence intervals, absolute sum of squares).
(§2) The compound numbers correspond to the compound numbers in Table 3. […] ;

[3] = molecular target: T2, HCV NS3/4A 1b protease wild type (Hepatitis C virus genotype 1b, UniProt Q9WMX2); experiment: HCV protease FRET assay (IC50_APP), Example 16; type: biochemical
T2 construct: 10× stocks of NS3/4A protease enzyme from Bioenza (Mountain View, Calif.); purchased Bioenza (Mountain View, Calif.)
Description: as §1, §2

[4] = molecular target: T3, HCV NS3/4A 1b protease R155K (Hepatitis C virus genotype 1b, UniProt Q9WMX2, R1181K); experiment: HCV protease FRET assay (IC50_APP), Example 16; type: biochemical; details: reaction started immediately after enzyme addition, read-out: Inhibition (apparent IC50, IC50_APP), HCV R155K
T3 construct: 10× stocks of NS3/4A protease enzyme from Bioenza (Mountain View, Calif.); purchased Bioenza (Mountain View, Calif.)
Description: as §1, §2

Structure (SMILES) | EC50 [1] | IC50 [2] | IC50 [3] | IC50 [4] | EC90 [1] | IC50 ([2]; read-out: Inhibition (apparent IC50, IC50_APP), HCV D168A, FRET, reaction started immediately after enzyme addition) | IC50 ([3]; read-out: Inhibition (apparent IC50, IC50_APP), WT, FRET, reaction started immediately after enzyme addition)
C=C[C@@H]1C[C@]1(NC(=O)[C@@H]1CC(OC(=O)N2Cc3cccc(F)c3C2)CN1C(=O)[C@H](CCC(=O)C#CC(C)(C)C)NC(=O)OC(C)(C)C)C(=O)NS(=O)(=O)C1CC1 (stereo partly shown) [Compound I-29] | 10 to 100 nM | < 10 nM | < 10 nM | < 10 nM |  |  | 
CC[C@@H]1C[C@]1(NC(=O)[C@@H]1CC(OC(=O)N2Cc3cccc(F)c3C2)CN1C(=O)[C@H](CCC(=O)C=C(C)C)NC(=O)OC(C)(C)C)C(=O)NS(=O)(=O)C1CC1 (stereo partly shown) [Compound I-33] |  | 1000 to 10000 nM | < 10 nM | 100 to 1000 nM |  |  | 
C=CC(=O)N1CCC/C=C\[C@@H]2C[C@@]2(C(=O)NS(=O)(=O)C2CC2)NC(=O)[C@@H]2CC(OC(=O)N3Cc4cccc(F)c4C3)CN2C(=O)[C@@H](NC(=O)OC(C)(C)C)C1 (stereo partly drawn) [Compound I-35, (1aR,3aS,5R,9S,16aS,Z)-11-acryloyl-9-(tert-butoxycarbonylamino)-1a-(cyclopropylsulfonylcarbamoyl)-3,8-dioxo-1,1a,2,3,3a,4,5,6,8,9,10,11,12,13,14,16a-hexadecahydrocyclopropa[n]pyrrolo[2,1-c][1,4,8]triazacyclopentadecin-5-yl-4-fluoroisoindoline-2-carboxylate] | 100 to 1000 nM | 10 to 100 nM | < 10 nM | 10 to 100 nM | 100 to 1000 nM |  | 
C=CC(=O)N1CC/C=C\[C@@H]2C[C@@]2(C(=O)NS(=O)(=O)C2CC2)NC(=O)[C@@H]2CC(OC(=O)N3Cc4cccc(F)c4C3)CN2C(=O)[C@@H](NC(=O)OC(C)(C)C)CC1 (stereo partly shown) [Compound I-36] | 100 to 1000 nM | < 10 nM | < 10 nM | < 10 nM | 100 to 1000 nM |  | 
C=CC(=O)N1C/C=C\[C@@H]2C[C@@]2(C(=O)NS(=O)(=O)C2CC2)NC(=O)[C@@H]2CC(OC(=O)N3Cc4cccc(F)c4C3)CN2C(=O)[C@@H](NC(=O)OC(C)(C)C)CCC1 (stereo partly shown) [Compound I-37] | 100 to 1000 nM | 10 to 100 nM | < 10 nM | 10 to 100 nM | 1000 to 10000 nM |  | 
C/C=C(\C)C(=O)CC[C@H](NC(=O)OC(C)(C)C)C(=O)N1CC(OC(=O)N2Cc3cccc(F)c3C2)C[C@H]1C(=O)N[C@]1(C(=O)NS(=O)(=O)C2CC2)C[C@H]1CC (stereo partly shown) [Compound I-39] |  | 100 to 1000 nM | < 10 nM | 10 to 100 nM |  |  | 
C=CC(=O)NC[C@@H]1NC(=O)OCC(C)(C)CC/C=C/c2cccc3c2CN(C3)C(=O)O[C@@H]2C[C@@H](C(=O)N[C@]3(C(=O)NS(=O)(=O)C4CC4)C[C@H]3C=C)N(C2)C1=O [Compound I-40] |  | 10 to 100 nM | < 10 nM | < 10 nM |  |  | 
C=CC(=O)NC[C@@H]1NC(=O)OCC(C)(C)CCCCc2cccc3c2CN(C3)C(=O)O[C@@H]2C[C@@H](C(=O)N[C@]3(C(=O)NS(=O)(=O)C4CC4)C[C@H]3C=C)N(C2)C1=O [Compound I-42] |  | 10 to 100 nM | < 10 nM | 10 to 100 nM |  |  | 
CCCCC(NC(=O)[C@@H]1C[C@@H](OC(=O)N2Cc3cccc(F)c3C2)CN1C(=O)[C@H](CCC(=O)C=C(C)C)NC(=O)OC(C)(C)C)C(=O)NS(=O)(=O)C1CC1 (stereo partly drawn) [Compound I-44, (3R,5S)-1-((S)-2-(tert-butoxycarbonylamino)-7-methyl-5-oxooct-6-enoyl)-5-(1-(cyclopropanesulfonamido)-1-oxohexan-2-ylcarbamoyl)pyrrolidin-3-yl 4-fluoroisoindoline-2-carboxylate] |  | 1000 to 10000 nM | < 10 nM | 1000 to 10000 nM |  |  | 
CC(C)(C)OC(=O)N[C@H]1CN(S(=O)(=O)c2ccccc2[N+](=O)[O-])CCC/C=C\[C@@H]2C[C@@]2(C(=O)NS(=O)(=O)C2CC2)NC(=O)[C@@H]2CC(OC(=O)N3Cc4cccc(F)c4C3)CN2C1=O (stereo partly shown) [Compound I-45] | 10 to 100 nM | < 10 nM | < 10 nM | < 10 nM | 100 to 1000 nM |  | 
C=CC(=O)N1CC(C(NC(C)=O)C(=O)N2CC(OC(=O)N3Cc4cccc(F)c4C3)C[C@H]2C(=O)N[C@]2(C(=O)NS(=O)(=O)C3CC3)C[C@H]2C=C)C1 (stereo partly shown) [Compound I-46] | 1000 to 10000 nM | 10 to 100 nM | < 10 nM | < 10 nM | 1000 to 10000 nM |  | 
CC(C)(C)OC(=O)N[C@H]1CN(C(=O)CCl)CCC/C=C\[C@@H]2C[C@@]2(C(=O)N(C(=O)CCl)S(=O)(=O)C2CC2)NC(=O)[C@@H]2CC(OC(=O)N3Cc4cccc(F)c4C3)CN2C1=O (stereo partly shown) [Compound I-48] |  | 100 to 1000 nM | 10 to 100 nM | 100 to 1000 nM |  |  | 
C=C[C@@H]1C[C@]1(NC(=O)[C@@H]1CC(OC(=O)N2Cc3cccc(F)c3C2)CN1C(=O)[C@@H](C)Nc1ccnc(Cl)n1)C(=O)NS(=O)(=O)C1CC1 (stereo partly shown) [Compound I-49] | 1000 to 10000 nM | 1000 to 10000 nM | 100 to 1000 nM | 1000 to 10000 nM | 1000 to 10000 nM |  | 
C=C[C@@H]1C[C@]1(NC(=O)[C@@H]1CC(OC(=O)N2Cc3cccc(F)c3C2)CN1C(=O)C(CN(C)C(=O)/C=C/CN(C)C)NC(=O)OC(C)(C)C)C(=O)NS(=O)(=O)C1CC1 (stereo partly shown) [Compound I-50] | 1000 to 10000 nM | 1000 to 10000 nM | 10 to 100 nM | 1000 to 10000 nM | 1000 to 10000 nM |  | 
C=CC(=O)N1CC(C(NC(=O)OC2CCCC2)C(=O)N2CC(OC(=O)N3Cc4cccc(F)c4C3)C[C@H]2C(=O)N[C@]2(C(=O)NS(=O)(=O)C3CC3)C[C@H]2C=C)C1 (stereo partly shown) [Compound I-51] | 100 to 1000 nM | 10 to 100 nM | < 10 nM | 10 to 100 nM | 1000 to 10000 nM |  | 
C=CC(=O)N(C)CC(NC(=O)C12CCC(C(=O)OC)(CC1)CC2)C(=O)N1CC(OC(=O)N2Cc3cccc(F)c3C2)C[C@H]1C(=O)N[C@]1(C(=O)NS(=O)(=O)C2CC2)C[C@H]1C=C (stereo partly shown) [Compound I-52] | 1000 to 10000 nM | 1000 to 10000 nM | 10 to 100 nM |  | 1000 to 10000 nM |  | 
CC(C)(C)OC(=O)N[C@H]1CCN(S(=O)(=O)c2ccccc2[N+](=O)[O-])CC/C=C\[C@@H]2C[C@@]2(C(=O)NS(=O)(=O)C2CC2)NC(=O)[C@@H]2CC(OC(=O)N3Cc4cccc(F)c4C3)CN2C1=O (stereo partly shown) [Compound I-53] | 10 to 100 nM |  |  | < 10 nM | 100 to 1000 nM | < 10 nM | < 10 nM
CC[C@@H]1C[C@]1(NC(=O)[C@@H]1C[C@@H](OC(=O)N2Cc3cccc(F)c3C2)CN1C(=O)[C@H](CC(=O)C=C(C)C)NC(=O)OC(C)(C)C)C(=O)NS(=O)(=O)C1CC1 [Compound I-60] |  |  | < 10 nM | 100 to 1000 nM |  |  | 
CC(C)(C)OC(=O)N[C@H]1COC(=O)/C=C/C=C\[C@@H]2C[C@@]2(C(=O)NS(=O)(=O)C2CC2)NC(=O)[C@@H]2C[C@@H](OC(=O)N3Cc4cccc(F)c4C3)CN2C1=O [Compound I-65] |  | 100 to 1000 nM | < 10 nM | 10 to 100 nM |  |  | 
C/C=C/C(=O)OC1CC/C=C\[C@@H]2C[C@@]2(C(=O)NS(=O)(=O)C2CC2)NC(=O)[C@@H]2C[C@@H](OC(=O)N3Cc4cccc(F)c4C3)CN2C(=O)[C@@H](NC(=O)OC(C)(C)C)CC1 (stereo partly shown) [Compound I-66] |  | < 10 nM | < 10 nM | < 10 nM |  |  | 
C=C[C@@H]1C[C@]1(NC(=O)[C@@H]1C[C@@H](OC(=O)N2Cc3cccc(F)c3C2)CN1C(=O)[C@H](COC(=O)/C=C/C=C/C)NC(=O)OC(C)(C)C)C(=O)NS(=O)(=O)C1CC1 [Compound I-67] |  | 100 to 1000 nM | < 10 nM | 100 to 1000 nM |  |  | 
C=C[C@@H]1C[C@]1(NC(=O)[C@@H]1CC(OC(=O)N2Cc3cccc(F)c3C2)CN1C(=O)[C@H](CC(=O)/C(C)=C/C)NC(=O)OC(C)(C)C)C(=O)NS(=O)(=O)C1CC1 (stereo partly shown) [Compound I-70] |  | 100 to 1000 nM | < 10 nM | 100 to 1000 nM |  |  | 
C=C[C@@H]1C[C@]1(NC(=O)[C@@H]1CC(OC(=O)N2Cc3cccc(F)c3C2)CN1C(=O)[C@H](CC/C=C/C(=O)OC)NC(=O)OC(C)(C)C)C(=O)NS(=O)(=O)C1CC1 (stereo partly shown) [Compound I-72] |  | 100 to 1000 nM | < 10 nM | 10 to 100 nM |  |  | 
